Results published in patent US20140023715A1, “POLYMER CONJUGATES TARGETING CELLS AND METHODS RELATED THERETO” (EMORY UNIVERSITY, priority 2011, published 2014).

How the values were obtained:
MIA PaCa-2 cells = experiment: Cell proliferation, Crystal violet assay, 96 h; format: cell-based; conditions: Homo sapiens
[1] = tested on: MIA PaCa-2 orthotopic pancreatic tumor; experiment: Tumor growth inhibition in mice bearing orthotopic MIA PaCa-2 pancreatic cancer; format: in vivo; conditions: i.v., gemcitabine-equivalent 2 mg/kg, five times
Experimental: (a) Mean tumor weight (blue bar) of non-, gemcitabine-, Gem-IONP, and ATF-Gem-IONPs treated MIA PaCa-2 bearing mice and individual weight distribution in every group (various symbols). Mice were given by i.v. injection of gemcitabine-equivalent dose of 2 mg/kg five times at 3- or 4-day intervals. At the end of the experimental period, tumor tissues were isolated and weighed. Values represent mean±S.D. for 16 mice. *Statistically significant difference vs. control, p<0.0001. **Statistically significant difference vs. gemcitabine and […] groups, p<0.05. (b) Representative tumor images of each group after dissection.
The tumor growth inhibition effect of ATF-Gem-IONPs was studied using female mice bearing orthotopical pancreatic cancer from an uPAR positive human pancreatic cancer cell line, MIA PaCa-2. NPs were administered five times at twice a week and the dose of ATF-Gem-IONPs was calculated based on gemcitabine-equivalence. Tumors were weighed at the end of the experiment, and average tumor weight was compared between groups (FIG. 4A). All of treated groups inhibited tumor growth compared to non-treated control group. […] Tumor weights agreed well tumor volumes results (FIG. 4B).

`Nc1ccn([C@@H]2O[C@H](CO)[C@@H](O)C2(F)F)c(=O)n1` [gemcitabine] was tested, and the viability at 1 µM (MIA PaCa-2 cells; gemcitabine equivalent concentration of 1 μM) was 39%, the IC50 (MIA PaCa-2 cells; gemcitabine-equivalent) was 498 nM and the “tumor growth inhibition compared to non-treated control (tumor weight)” value [1] was 30%.
